# According to the NIST ThermoML archive (doi:10.1016/j.fluid.2005.12.004):
# ± gives the expanded uncertainty stated by the source.
# Conditions: Liquid, Closed cell (Static) method
smiles,measurement,setting,value
FC(F)(F)C(F)(F)F [hexafluoroethane],vapor or sublimation pressure,189.31 K,73.9 ± 4 kPa
same,vapor or sublimation pressure,192.63 K,88.5 ± 4 kPa
same,vapor or sublimation pressure,247.63 K,883 ± 4.8 kPa
same,vapor or sublimation pressure,252.8 K,1038.2 ± 5 kPa
